One test has as its target hGSTP1-1 (Homo sapiens, UniProt P09211). Nature of the test: Specific activity / enzyme kinetics of GST towards compounds in presence of GSH. To be noted: compound 50 µM, 37 °C. The test is classed as biochemical.
The next test deals with T1, hGSTA1-1 (Homo sapiens, UniProt P08263).
T1 sequence (P08263 1-222): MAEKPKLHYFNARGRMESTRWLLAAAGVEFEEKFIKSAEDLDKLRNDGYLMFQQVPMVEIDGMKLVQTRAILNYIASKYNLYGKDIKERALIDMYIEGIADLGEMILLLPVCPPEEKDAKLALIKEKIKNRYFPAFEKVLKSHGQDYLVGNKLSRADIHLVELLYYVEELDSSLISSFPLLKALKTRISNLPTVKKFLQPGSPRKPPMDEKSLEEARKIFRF
Described as above. The test is classed as biochemical. To be noted: compound 50 µM, 37 °C.

The next test concerns the target T2, hGSTM1-1 (Homo sapiens, UniProt P09488).
T2 sequence (P09488 2-218 limits assumed): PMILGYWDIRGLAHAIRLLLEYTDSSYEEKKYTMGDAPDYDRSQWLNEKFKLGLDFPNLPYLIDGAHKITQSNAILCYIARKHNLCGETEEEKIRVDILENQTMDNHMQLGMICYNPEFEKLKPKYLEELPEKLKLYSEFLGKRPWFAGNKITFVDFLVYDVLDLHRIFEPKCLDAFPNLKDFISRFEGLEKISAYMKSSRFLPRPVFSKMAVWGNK
The test is described as above. The class given is biochemical. As to conditions: compound 50 µM, 37 °C.

The next test concerns HL-60 cells. Description: MTT cell proliferation assay. The class given is cell-based. As to conditions: Homo sapiens, HL-60, 72 h, read-out: IC50 anti-proliferative activity. For orientation: Formazan colour is commonly taken as a measure of viable cells.

SMILES strings stand for the structures.

Chain of hGSTP1-1 (P09211 2-210 limits assumed): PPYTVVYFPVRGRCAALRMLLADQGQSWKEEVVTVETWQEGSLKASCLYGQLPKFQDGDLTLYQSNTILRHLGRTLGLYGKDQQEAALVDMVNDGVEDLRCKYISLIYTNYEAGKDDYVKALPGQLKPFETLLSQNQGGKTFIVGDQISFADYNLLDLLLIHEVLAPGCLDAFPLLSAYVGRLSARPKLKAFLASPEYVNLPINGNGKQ

Take `CCOC(=O)N1CC(C)N(/[N+]([O-])=N/Oc2ccc([N+](=O)[O-])cc2[N+](=O)[O-])CC1C` (stereo not shown) [3d, O^2-(2,4-Dinitrophenyl) 1-[(4-Ethoxycarbonyl)-2,5-dimethylpiperazin-1-yl]diazen-1-ium-1,2-diolate]: the GSTP1-1 specific activity at hGSTP1-1 is 0.14 µmol/mg/min. Further, the GSTA1-1 specific activity on hGSTA1-1 amounted to 17.6 µmol/mg/min. In addition, the GSTM1-1 specific activity on hGSTM1-1 stood at 49 µmol/mg/min.
For the compound `CCOC(=O)N1C(C)CN(/[N+]([O-])=N/Oc2ccc([N+](=O)[O-])cc2[N+](=O)[O-])CC1C` (stereo not shown) [3c, O^2-(2,4-Dinitrophenyl) 1-[(4-Ethoxycarbonyl)-3,5-dimethylpiperazin-1-yl]diazen-1-ium-1,2-diolate], the GSTP1-1 specific activity on hGSTP1-1 came to 1.17 µmol/mg/min. Moreover, the GSTA1-1 specific activity at hGSTA1-1 came to 70.3 µmol/mg/min. In addition, on hGSTM1-1, the GSTM1-1 specific activity turned out to be 172 µmol/mg/min.
For `CCOC(=O)N1CCN(/[N+]([O-])=N/Oc2ccc([N+](=O)[O-])cc2[N+](=O)[O-])CC1C` (stereo not shown) [3a, O^2-(2,4-Dinitrophenyl) 1-[(4-Ethoxycarbonyl)-3-methylpiperazin-1-yl]diazen-1-ium-1,2-diolate], on hGSTP1-1, the GSTP1-1 specific activity is 1.15 µmol/mg/min. Besides, on hGSTA1-1, the GSTA1-1 specific activity was found to be 55.5 µmol/mg/min. In addition, the GSTM1-1 specific activity on hGSTM1-1 came to 112 µmol/mg/min.
Regarding `CCOC(=O)N1CCCN(/[N+]([O-])=N/Oc2ccc([N+](=O)[O-])cc2[N+](=O)[O-])CC1` [4a], the GSTP1-1 specific activity on hGSTP1-1 stood at 0.16 µmol/mg/min. The GSTA1-1 specific activity at hGSTA1-1 was determined as 16.8 µmol/mg/min. The GSTM1-1 specific activity at hGSTM1-1 was found to be 38 µmol/mg/min.
The matching figures for `COC(=O)N1CCN(/[N+]([O-])=N/Oc2ccc([N+](=O)[O-])cc2[N+](=O)[O-])CC1` [4b]: 0.98 µmol/mg/min, 45.1 µmol/mg/min and 102 µmol/mg/min.
On the same counts, the results for `CCCOC(=O)N1CCN(/[N+]([O-])=N/Oc2ccc([N+](=O)[O-])cc2[N+](=O)[O-])CC1` [4c] are 1.2 µmol/mg/min, 59.0 µmol/mg/min and 126.3 µmol/mg/min.
On to `CCOC(=O)N1CCN(/[N+]([O-])=N/Oc2ccc([N+](=O)[O-])cc2[N+](=O)[O-])C(C)C1` (stereo not shown) [3b, O^2-(2,4-Dinitrophenyl) 1-[(4-Ethoxycarbonyl)-2-methylpiperazin-1-yl]diazen-1-ium-1,2-diolate], for which the GSTP1-1 specific activity on hGSTP1-1 came out at 0.88 µmol/mg/min. For the same compound, the GSTA1-1 specific activity at hGSTA1-1 stood at 47.0 µmol/mg/min. For the same compound, the GSTM1-1 specific activity on hGSTM1-1 is 110 µmol/mg/min.
As a reminder, the IC50 is the concentration that gives 50% inhibition. For the compound `CCOC(=O)N1CCN(/[N+]([O-])=N/Oc2ccc([N+](=O)[O-])cc2[N+](=O)[O-])CC1` [JS-K, O^2-(2,4-dinitrophenyl) 1-[(4-ethoxycarbonyl)piperazin-1-yl]diazen-1-ium-1,2-diolate], on hGSTP1-1, the GSTP1-1 specific activity was 1.36 µmol/mg/min. At hGSTA1-1, the GSTA1-1 specific activity stood at 66.3 µmol/mg/min. Further, the GSTM1-1 specific activity on hGSTM1-1 was 126 µmol/mg/min. Further, the IC50 with HL-60 cells fell in the range of 0.2 to 0.5 µM.

These data come from PMC2631660 (Bioorganic & medicinal chemistry, 2008).
